In patent US10100027B2, “Benzofuran analogue as NS4B inhibitor” (priority 2014, dated 2018):

How the values were obtained:
Assay type in all cases: cell-based
[1] = tested on: HCV genotype 1b (HCV-1b) replicon cells; assay: HCV genotype 1b replicon cell assay (luciferase, Bright-Glo); conditions: Hepatitis C virus, 72 h, HCV-1b (Con1) replicon cells, 3 days
Method: (§1) The EC50 and CC50 values of anti-HCV compounds were determined by HCV genotype 1a (HCV-1a) and 1b (HCV-1b) stable transfected replication (replicon) cells. The source of genotype 1a replicon is H77 clones containing K1691R, K2040R and S2204I adaptive mutations. The source of genotype 1b replicon is Con1 clones containing E1202G, T1280I and K1846T adaptive mutations.
(§2) HCV 1a (HCV-1a) and 1b (HCV-1b) gene subtype replicon system contains the related HCV gene subtype non-structural protein gene, G418 resistance gene NEO and luciferase gene, which results in that HCV related protein and luciferase can be stably expressed in cells. By detecting the level of expression of luciferase gene, the level of HCV replication can be determined. Therefore, the system is used as a model for screening the activity of anti-HCV compound in vitro.
(§3) The compound powder was dissolved in 100% DMSO. Then the compound was diluted 5 times with 6 points, and added into the cell plate with Echo liquid handler. Ensure the final concentration of DMSO was 0.5%. Each compound was tested in duplicate.
(§4) 4) Diluting cells to 8×10^4 cells/mL with the culture medium, adding the diluted cells into the compound-containing 96-well plate (Greiner, Cat. #655090) (100 μL/well, 8000 cells/well) with automatic liquid separator (Thermo Scientific). Then place into a 37° C., 5% CO2 incubator for 3 days. Cell control well: no compound, only containing 0.5% DMSO.
(§5) 6) Then adding luciferase substrate Bright-Glo, after incubation for 5 minutes, detecting the luciferase activity by microplate reader Envison (wavelength>700 nm); analyzing the anti-HCV inhibitory activity of the compounds according to luminescence data, which was used to calculate EC50 values.
(§6) The EC50 or CC50 values were obtained by nonlinear fitting regression on inhibition percentage (inh %) data with GraphPad Prism software.

[2] = Cytotoxicity in HCV replicon cells (Cell Titer-fluor)
Method: as §1, §3, §4
5) Adding fluorescence substrate Cell Titer-fluor to the cell well, after incubation for 30 minutes, detecting the signal by microplate reader Envison (Ex at 405 nm and read at 515 nm). The effect of the compounds on the cytotoxicity of HCV replicon cells was analyzed according to the fluorescence data, which was used to calculate the CC50 values.
as §6

[3] = tested on: HCV genotype 1a (HCV-1a) replicon cells; assay: HCV genotype 1a replicon cell assay (luciferase, Bright-Glo); conditions: Hepatitis C virus, 72 h, HCV-1a (H77) replicon cells, 3 days
Method: as §1, §2, §3, §4, §5, §6

O=C(c1nc2c(C(F)(F)F)cc(C3CC3)cn2c1Cl)N1CCN([C@H]2CC[C@H](O)CC2)C(=O)N1 [YA_0363]
EC50 [1]: 0.0001 to 0.1 µM | CC50 at 3 days [2]: > 3 µM | EC50 [3]: 0.0001 to 0.1 µM

COC1(C)CN(C(=O)C2CCN(C(=O)c3oc4c(C(F)(F)F)cc(C5CC5)cc4c3Cl)CC2)C1 [YD_0344]
EC50 [1]: 1 to 5 µM | CC50 at 3 days [2]: > 3 µM | EC50 [3]: 0.1 to 1 µM

CCCc1cc(C(F)(F)F)c2oc(C(=O)N3CCN(N4CCOC4=O)CC3)c(Cl)c2c1 [YD_0216]
EC50 [1]: 0.0001 to 0.1 µM | CC50 at 3 days [2]: > 3 µM | EC50 [3]: 0.0001 to 0.1 µM

N#CC1CN(C(=O)C2CCN(C(=O)c3oc4c(C(F)(F)F)cc(C5CC5)cc4c3Cl)CC2)C1 [YD_0352]
EC50 [1]: 1 to 5 µM | CC50 at 3 days [2]: > 3 µM | EC50 [3]: 0.1 to 1 µM

O=C(Nc1ccc(Cl)cn1)C1CCN(C(=O)c2oc3c(C(F)(F)F)cc(C4CC4)cc3c2Cl)CC1 [YD_0327]
EC50 [1]: 1 to 5 µM | CC50 at 3 days [2]: > 3 µM | EC50 [3]: 0.1 to 1 µM

CC1(C(=O)N2CC(O)C2)CCN(C(=O)c2oc3c(C(F)(F)F)cc(C4CC4)cc3c2Cl)CC1 [YD_0318]
EC50 [1]: 1 to 5 µM | CC50 at 3 days [2]: > 3 µM | EC50 [3]: 0.1 to 1 µM

CC1CN(C(=O)C2CCN(C(=O)c3oc4c(C(F)(F)F)cc(C5CC5)cc4c3Cl)CC2)CCN1C (stereo not drawn) [YD_0325]
EC50 [1]: 1 to 5 µM | CC50 at 3 days [2]: > 3 µM | EC50 [3]: 0.1 to 1 µM

O=C(NC12CCC(c3nnco3)(CC1)CC2)c1oc2c(C(F)(F)F)cc(C3CC3)cc2c1Cl [YD_0122]
EC50 [1]: 0.1 to 1 µM | CC50 at 3 days [2]: > 3 µM | EC50 [3]: 0.0001 to 0.1 µM

CC1(O)CN(C(=O)C2CCN(C(=O)c3oc4c(C(F)(F)F)cc(C5CC5)cc4c3Cl)CC2)C1 [YD_0345]
EC50 [1]: 1 to 5 µM | CC50 at 3 days [2]: > 3 µM | EC50 [3]: 0.1 to 1 µM

CN(C)C(=O)C1CCN(C(=O)c2oc3c(C(F)(F)F)cc(C4CC4)cc3c2Cl)CC1 [YD_0273]
EC50 [1]: 0.0001 to 0.1 µM | CC50 at 3 days [2]: > 3 µM | EC50 [3]: 0.0001 to 0.1 µM

CC1CNCCN1C(=O)C1CCN(C(=O)c2oc3c(C(F)(F)F)cc(C4CC4)cc3c2Cl)CC1 (stereo not drawn) [YD_0322]
EC50 [1]: 0.1 to 1 µM | CC50 at 3 days [2]: > 3 µM | EC50 [3]: 0.1 to 1 µM

Cc1nnc(C23CCC(NC(=O)c4oc5c(C(F)(F)F)cc(C6CC6)cc5c4Cl)(CC2)CC3)o1 [YD_0056]
EC50 [1]: 1 to 5 µM | CC50 at 3 days [2]: > 3 µM

O=C(c1nc2c(C(F)(F)F)cc(C3CC3)cn2c1Cl)N1CCN(C2CC(F)(F)C2)C(=O)N1 [YA_0367]
EC50 [1]: 0.0001 to 0.1 µM | CC50 at 3 days [2]: > 3 µM | EC50 [3]: 0.0001 to 0.1 µM

O=C(c1oc2c(C(F)(F)F)cc(C3CC3)cc2c1Cl)N1CCN(C23CCC(CC2)CC3)C(=O)C1 [YD_0280]
EC50 [1]: 0.1 to 1 µM | CC50 at 3 days [2]: > 3 µM | EC50 [3]: 0.1 to 1 µM

O=C(c1nc2c(C(F)(F)F)cc(C3CC3)cn2c1Cl)N1CCN(C2CCC(F)(F)CC2)C(=O)N1 [YA_0366]
EC50 [1]: 0.0001 to 0.1 µM | CC50 at 3 days [2]: > 3 µM | EC50 [3]: 0.0001 to 0.1 µM

O=C1NN(C(=O)c2nc3c(C(F)(F)F)cc(C4CC4)cn3c2Cl)CCN1CC(F)(F)F [YA_0361]
CC50 at 3 days [2]: > 3 µM

Cc1nnc(C23CCC(NC(=O)c4cc5cc(C(C)C)cc(C(F)(F)F)c5o4)(CC2)CC3)o1 [YD_0019]
EC50 [1]: 0.1 to 1 µM | CC50 at 3 days [2]: > 3 µM

CC(C)c1cc(C(F)(F)F)c2oc(C(=O)N3CCN(C4CCC(O)CC4)C(=O)C3)cc2c1 (stereo not drawn) [YD_0044]
EC50 [1]: 0.0001 to 0.1 µM | CC50 at 3 days [2]: > 3 µM

CCCc1cc(C(F)(F)F)c2oc(C(=O)NC34CCC(c5nnc(C)o5)(CC3)CC4)c(Cl)c2c1 [YD_0060]
EC50 [1]: 0.1 to 1 µM | CC50 at 3 days [2]: > 3 µM

O=C(c1nc2c(C(F)(F)F)cc(C3CC3)cn2c1Cl)N1CCN(C2CC2)C(=O)N1 [YA_0362]
CC50 at 3 days [2]: > 3 µM

Cc1nnc(C23CCC(NC(=O)c4oc5c(C(F)(F)F)cc(C6CC6)cc5c4C)(CC2)CC3)o1 [YD_0058]
EC50 [1]: 0.1 to 1 µM | CC50 at 3 days [2]: > 3 µM

O=C(c1nc2c(C(F)(F)F)cc(C3CC3)cn2c1Cl)N1CCN([C@H]2C[C@H](O)C2)C(=O)N1 [YA_0359]
CC50 at 3 days [2]: > 3 µM

Cc1nnc(C23CCC(NC(=O)c4oc5c(C(F)(F)F)cc(C6CC6)cc5c4Br)(CC2)CC3)o1 [YD_0057]
EC50 [1]: 0.1 to 1 µM | CC50 at 3 days [2]: > 3 µM
